In ChEMBL document CHEMBL1148132, “Abietane diterpenoids from Coleus xanthanthus” (J Nat Prod, 2002) one finds IC50 data, which are given here for six compounds.

This assay has as its system K562. Kind of assay: Cytotoxicity against human K562 cells after 48 hrs by MTT assay. Conditions: K562, 48 h. The assay is classed as functional, cell-based. On the technique in general: Formazan colour is commonly taken as a measure of viable cells.

SMILES strings stand for the structures. In brackets after ≈: the same amount, converted by molar mass.

One may read the IC50 as the concentration that inhibits the measured activity by half. A higher IC50 goes with weaker potency. Take `CC(C)C1=C(O)C(=O)C2=C(C(=O)C(O)=C3C(C)(C)CCC[C@]23C)C1=O`: the IC50 was 3 µg/mL (≈ 8.71 µM).
Under `CC(=O)Oc1c(O)c(C(C)C)c(O)c2c1[C@@]1(C)CCCC(C)(C)C1=C(O)C2=O` stands 2.2 µg/mL (≈ 5.66 µM).
The result for `CC(C)C1=C(O)C(=O)[C@@]23O[C@@]2(C(=O)C(O)=C2C(C)(C)CCC[C@@]23C)C1=O` reads 13.9 µg/mL (≈ 38.6 µM).
With `O=C1c2c(O)ccc(O)c2C(=O)c2c(NCCNCCO)ccc(NCCNCCO)c21` [MITOXANTRONE], it took 2 µg/mL (≈ 4.5 µM) to reach half-maximal inhibition (IC50).
The result for `CC(C)C1=C(O)C(=O)C([C@@]2(C)CCCC(C)(C)C2=O)=C(C(=O)O)C1=O` [XANTHANTHUSIN E] reads 34.3 µg/mL (≈ 98.5 µM); that for `CC(=O)OCC(C)C1=C(OC(C)=O)C(=O)C2=C(C(=O)C(O)=C3C(C)(C)CCC[C@]23C)C1=O` (stereo partly specified) [XANTHANTHUSIN H], 12.9 µg/mL (≈ 29 µM).
